Calls of active or inactive are those of the source. The calls are words filed in the database; no cut-off is given here.
Tests used:
[1] = target: Nitric oxide synthase, inducible (Homo sapiens) (UniProt P35228); test: Inhibition of recombinant N-terminal His-tagged human iNOS expressed in Escherichia coli assessed as L-[3H]-citrulline formation at 1 mM using L-[3H]-arginine as substrate after 30 mins by liquid scintillation spectroscopy
Target sequence in this assay (P35228 whole entry): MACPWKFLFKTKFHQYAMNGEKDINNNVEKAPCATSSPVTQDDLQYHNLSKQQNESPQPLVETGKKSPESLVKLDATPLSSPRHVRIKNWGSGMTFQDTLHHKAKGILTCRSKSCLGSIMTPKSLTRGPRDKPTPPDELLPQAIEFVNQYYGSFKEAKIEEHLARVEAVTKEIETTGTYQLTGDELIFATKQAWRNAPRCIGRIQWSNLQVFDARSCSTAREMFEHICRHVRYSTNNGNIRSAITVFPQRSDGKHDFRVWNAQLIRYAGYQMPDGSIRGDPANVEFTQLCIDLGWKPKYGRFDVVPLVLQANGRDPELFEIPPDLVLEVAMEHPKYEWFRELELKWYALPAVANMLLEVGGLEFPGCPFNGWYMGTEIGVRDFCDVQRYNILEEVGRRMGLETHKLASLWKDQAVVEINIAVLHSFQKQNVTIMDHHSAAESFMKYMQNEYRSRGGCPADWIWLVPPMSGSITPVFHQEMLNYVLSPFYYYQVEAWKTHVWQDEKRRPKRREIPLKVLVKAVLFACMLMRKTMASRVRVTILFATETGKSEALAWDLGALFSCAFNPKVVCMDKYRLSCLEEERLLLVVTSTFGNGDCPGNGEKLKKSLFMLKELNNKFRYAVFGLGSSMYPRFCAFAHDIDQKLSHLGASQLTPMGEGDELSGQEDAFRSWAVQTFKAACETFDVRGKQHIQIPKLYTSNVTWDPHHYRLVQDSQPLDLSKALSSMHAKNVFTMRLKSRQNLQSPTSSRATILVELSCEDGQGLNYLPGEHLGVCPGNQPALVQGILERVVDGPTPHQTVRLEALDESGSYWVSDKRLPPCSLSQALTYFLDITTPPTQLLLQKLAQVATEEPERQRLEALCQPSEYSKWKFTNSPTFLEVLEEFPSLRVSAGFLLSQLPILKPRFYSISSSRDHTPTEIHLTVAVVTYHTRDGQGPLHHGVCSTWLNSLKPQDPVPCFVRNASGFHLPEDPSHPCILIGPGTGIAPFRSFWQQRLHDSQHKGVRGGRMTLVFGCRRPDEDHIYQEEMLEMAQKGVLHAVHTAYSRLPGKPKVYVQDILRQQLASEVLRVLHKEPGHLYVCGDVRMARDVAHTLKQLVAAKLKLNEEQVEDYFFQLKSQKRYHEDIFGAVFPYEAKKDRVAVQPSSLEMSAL

[2] = target: Nitric oxide synthase 1 (Homo sapiens) (UniProt P29475); test: Inhibition of recombinant nNOS (unknown origin) assessed as L-[3H]-citrulline formation at 1 mM using L-[3H]-arginine as substrate after 30 mins by liquid scintillation spectroscopy
[3] = target: Nitric oxide synthase, inducible (Homo sapiens) (UniProt P35228); test: Inhibition of recombinant iNOS (unknown origin) assessed as L-[3H]-citrulline formation using L-[3H]-arginine as substrate after 30 mins by liquid scintillation spectroscopy
Target sequence in this assay (P35228 whole entry, looked up): as the sequence (P35228 whole entry) above

[4] = target: Nitric oxide synthase, brain (Homo sapiens) (UniProt P29475); test: Inhibition of recombinant N-terminal His-tagged human nNOS expressed in Escherichia coli assessed as L-[3H]-citrulline formation using L-[3H]-arginine as substrate after 30 mins by liquid scintillation spectroscopy
HUVEC = test: Cytotoxicity against HUVEC cells assessed as reduction in cell viability at >1 mM after 30 mins by MTT assay; type: cell-based; conditions: human, 0.5 h
[5] = target: T1, Nitric oxide synthase 3 (Homo sapiens) (UniProt P29474); test: Inhibition of eNOS in HUVEC cells assessed as A23187 stimulated nitric oxide production at 100 umol/L preincubated for 30 mins using L-arginine as substrate for 5 mins followed A23187 addition measured after 30 mins by DAF2 dye based spectrofluorimetry; type: cell-based
T1 sequence (whole entry): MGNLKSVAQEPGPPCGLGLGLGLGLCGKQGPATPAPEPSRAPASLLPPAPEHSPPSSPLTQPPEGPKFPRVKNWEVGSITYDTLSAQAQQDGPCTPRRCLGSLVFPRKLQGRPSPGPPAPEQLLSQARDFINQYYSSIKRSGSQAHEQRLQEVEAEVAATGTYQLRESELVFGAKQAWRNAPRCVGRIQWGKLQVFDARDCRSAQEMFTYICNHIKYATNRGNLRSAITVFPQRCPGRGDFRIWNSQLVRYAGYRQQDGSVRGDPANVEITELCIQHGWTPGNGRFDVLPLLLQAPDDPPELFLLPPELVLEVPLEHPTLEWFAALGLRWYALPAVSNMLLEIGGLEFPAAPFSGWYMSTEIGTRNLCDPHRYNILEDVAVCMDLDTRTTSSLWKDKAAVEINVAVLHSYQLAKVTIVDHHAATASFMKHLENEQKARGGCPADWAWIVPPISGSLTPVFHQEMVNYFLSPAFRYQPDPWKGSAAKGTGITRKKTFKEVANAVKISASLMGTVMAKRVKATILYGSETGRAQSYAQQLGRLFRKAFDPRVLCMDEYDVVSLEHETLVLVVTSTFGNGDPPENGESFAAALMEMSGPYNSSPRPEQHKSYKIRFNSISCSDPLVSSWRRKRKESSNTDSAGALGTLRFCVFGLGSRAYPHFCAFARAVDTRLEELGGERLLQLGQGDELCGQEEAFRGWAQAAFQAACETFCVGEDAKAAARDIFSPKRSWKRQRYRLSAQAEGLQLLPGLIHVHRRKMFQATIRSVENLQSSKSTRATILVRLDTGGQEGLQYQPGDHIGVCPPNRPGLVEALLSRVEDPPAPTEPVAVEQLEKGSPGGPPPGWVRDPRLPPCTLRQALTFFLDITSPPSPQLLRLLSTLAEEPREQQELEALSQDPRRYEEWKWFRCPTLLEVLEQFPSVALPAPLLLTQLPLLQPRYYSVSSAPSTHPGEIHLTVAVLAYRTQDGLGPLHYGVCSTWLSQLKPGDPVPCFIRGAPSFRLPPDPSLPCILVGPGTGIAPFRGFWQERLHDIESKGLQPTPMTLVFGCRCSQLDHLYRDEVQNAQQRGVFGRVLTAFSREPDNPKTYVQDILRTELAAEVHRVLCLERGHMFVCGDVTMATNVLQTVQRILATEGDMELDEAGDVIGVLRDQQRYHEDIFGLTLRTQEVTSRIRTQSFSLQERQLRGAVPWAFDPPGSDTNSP

[6] = target: T2, Nitric oxide synthase 3 (Rattus norvegicus) (UniProt Q62600); test: Inhibition of eNOS in Wistar rat aortic rings assessed as effect on acetylcholine evoked endothelial dependent relaxation of precontracted aortic rings at 100 umol/l after 30 mins
T2 sequence (whole entry): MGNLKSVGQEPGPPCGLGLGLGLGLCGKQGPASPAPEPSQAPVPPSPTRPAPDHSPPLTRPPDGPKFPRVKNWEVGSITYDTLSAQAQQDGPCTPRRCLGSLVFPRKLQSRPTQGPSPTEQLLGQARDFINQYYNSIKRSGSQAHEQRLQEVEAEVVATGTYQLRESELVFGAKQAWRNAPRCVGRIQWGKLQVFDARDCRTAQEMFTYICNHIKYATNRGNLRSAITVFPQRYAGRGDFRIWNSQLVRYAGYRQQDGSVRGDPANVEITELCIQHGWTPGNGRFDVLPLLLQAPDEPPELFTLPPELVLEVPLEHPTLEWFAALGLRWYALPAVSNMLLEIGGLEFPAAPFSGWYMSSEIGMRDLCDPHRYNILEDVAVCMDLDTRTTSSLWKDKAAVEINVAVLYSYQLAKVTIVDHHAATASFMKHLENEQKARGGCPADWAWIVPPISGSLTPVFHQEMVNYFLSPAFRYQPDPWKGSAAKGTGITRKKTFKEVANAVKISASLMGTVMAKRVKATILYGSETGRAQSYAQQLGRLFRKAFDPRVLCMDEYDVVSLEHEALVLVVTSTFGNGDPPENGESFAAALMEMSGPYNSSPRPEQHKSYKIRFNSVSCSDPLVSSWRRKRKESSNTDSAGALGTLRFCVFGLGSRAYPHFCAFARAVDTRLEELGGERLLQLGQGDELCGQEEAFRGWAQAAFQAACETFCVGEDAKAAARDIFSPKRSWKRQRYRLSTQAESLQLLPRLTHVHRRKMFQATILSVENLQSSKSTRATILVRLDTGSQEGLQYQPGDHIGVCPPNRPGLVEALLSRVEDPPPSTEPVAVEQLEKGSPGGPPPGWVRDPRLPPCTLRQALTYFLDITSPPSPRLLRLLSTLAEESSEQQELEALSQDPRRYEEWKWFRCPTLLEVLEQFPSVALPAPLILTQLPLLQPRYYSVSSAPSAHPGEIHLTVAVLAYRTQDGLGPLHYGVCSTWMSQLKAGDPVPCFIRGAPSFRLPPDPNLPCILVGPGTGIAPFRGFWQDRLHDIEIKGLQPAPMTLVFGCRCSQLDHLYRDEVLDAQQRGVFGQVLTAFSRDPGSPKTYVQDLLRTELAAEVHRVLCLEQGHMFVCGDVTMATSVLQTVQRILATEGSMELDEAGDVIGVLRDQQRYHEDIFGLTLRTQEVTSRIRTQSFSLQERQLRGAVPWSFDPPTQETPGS

[7] = target: T2, Nitric oxide synthase 3 (Rattus norvegicus); test: Inhibition of eNOS in Wistar rat aortic rings assessed as suppression of acetylcholine evoked endothelial dependent relaxation of precontracted aortic rings at 100 umol/l after 30 mins

Chain of Nitric oxide synthase 1 (Homo sapiens) (P29475 whole entry): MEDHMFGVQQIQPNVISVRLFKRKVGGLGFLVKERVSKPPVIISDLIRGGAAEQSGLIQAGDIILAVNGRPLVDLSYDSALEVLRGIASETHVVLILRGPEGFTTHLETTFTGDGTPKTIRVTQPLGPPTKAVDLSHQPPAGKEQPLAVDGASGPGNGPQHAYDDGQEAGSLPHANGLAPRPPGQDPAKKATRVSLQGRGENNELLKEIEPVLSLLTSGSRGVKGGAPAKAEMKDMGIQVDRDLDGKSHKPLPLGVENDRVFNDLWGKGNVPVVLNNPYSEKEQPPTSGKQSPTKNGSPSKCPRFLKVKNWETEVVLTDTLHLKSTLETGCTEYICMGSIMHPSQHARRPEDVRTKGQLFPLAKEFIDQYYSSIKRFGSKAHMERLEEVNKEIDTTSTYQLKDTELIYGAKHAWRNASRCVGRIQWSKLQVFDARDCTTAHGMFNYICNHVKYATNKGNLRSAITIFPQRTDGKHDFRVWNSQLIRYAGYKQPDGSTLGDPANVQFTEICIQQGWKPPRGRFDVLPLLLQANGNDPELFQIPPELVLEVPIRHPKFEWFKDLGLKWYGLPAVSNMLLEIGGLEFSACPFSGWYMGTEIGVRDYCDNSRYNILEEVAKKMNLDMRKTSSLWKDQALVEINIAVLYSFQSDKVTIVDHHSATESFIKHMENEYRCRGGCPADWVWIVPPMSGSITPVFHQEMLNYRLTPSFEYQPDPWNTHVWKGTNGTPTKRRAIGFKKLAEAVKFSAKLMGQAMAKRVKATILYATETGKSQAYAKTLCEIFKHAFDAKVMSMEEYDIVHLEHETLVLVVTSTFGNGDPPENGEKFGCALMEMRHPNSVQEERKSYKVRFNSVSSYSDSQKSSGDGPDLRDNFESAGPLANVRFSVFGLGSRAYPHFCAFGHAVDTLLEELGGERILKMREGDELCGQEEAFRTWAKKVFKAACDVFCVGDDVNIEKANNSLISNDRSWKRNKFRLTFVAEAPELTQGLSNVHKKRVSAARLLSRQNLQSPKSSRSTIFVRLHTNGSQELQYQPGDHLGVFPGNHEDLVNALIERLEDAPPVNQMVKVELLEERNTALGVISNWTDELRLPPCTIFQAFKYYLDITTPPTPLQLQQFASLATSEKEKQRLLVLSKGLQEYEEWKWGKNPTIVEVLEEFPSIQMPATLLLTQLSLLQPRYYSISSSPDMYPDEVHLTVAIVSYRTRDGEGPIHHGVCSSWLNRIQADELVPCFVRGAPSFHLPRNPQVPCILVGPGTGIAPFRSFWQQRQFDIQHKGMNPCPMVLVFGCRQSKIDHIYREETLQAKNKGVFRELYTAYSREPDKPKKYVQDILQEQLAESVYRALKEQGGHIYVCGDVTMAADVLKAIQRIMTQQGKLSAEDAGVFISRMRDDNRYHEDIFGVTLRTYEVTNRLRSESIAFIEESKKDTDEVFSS
Chain of Nitric oxide synthase, brain (Homo sapiens) (P29475 whole entry, looked up): as the sequence (P29475 whole entry) above

## CCNC(=O)NCCC(O)c1cc(OC)ccc1N (stereo unspecified)
[1]
  inhibition: 26.6%
[2]
  inhibition: 43%

## Nc1ccccc1C(O)CCNC(=O)Nc1ccccc1 (stereo unspecified)
[1]
  inhibition: 27.9%
[2]
  inhibition: 17.7%

## COc1ccc(N)c(C(=O)CCNC(C)=O)c1
[1]
  inhibition: 30.7%

## COc1ccc(N)c(C(=O)CCNC(=O)C2CC2)c1
[1]
  inhibition: 2.66%

## CCC(=O)NCCC(=O)c1cc(OC)ccc1N
[1]
  inhibition: 0.24%

## CNC(=S)NCCC(O)c1cc(Cl)ccc1N (stereo unspecified)
[1]
  inhibition: 22.1%
[3]
  IC50: > 1000 µM
[2]
  inhibition: 70.5%
[4]
  IC50: 710 µM

## CCCNC(=S)NCCC(O)c1cc(Cl)ccc1N (stereo unspecified)
[1]
  inhibition: 55%
[3]
  IC50: 860 µM
[2]
  inhibition: 32.4%
[4]
  IC50: > 1000 µM

## CCCNC(=O)NCCC(O)c1cc(OC)ccc1N (stereo unspecified)
[1]
  inhibition: 14.7%
[2]
  inhibition: 15.8%

## CCNC(=O)NCCC(O)c1cc(Cl)ccc1N (stereo unspecified)
[1]
  inhibition: 33.9%
[2]
  inhibition: 15.2%

## COc1ccc(N)c(C(=O)CCNC(=O)c2ccccc2)c1
[1]
  inhibition: 10.9%

## CCCCC(=O)NCCC(=O)c1cc(OC)ccc1N
[1]
  inhibition: 14.1%

## CCNC(=O)NCCC(O)c1ccccc1N (stereo unspecified)
[1]
  inhibition: 18.3%
[2]
  inhibition: 7.81%

## CCCNC(=S)NCCC(O)c1cc(OC)ccc1N (stereo unspecified)
[1]
  inhibition: 25.4%
[2]
  inhibition: 6.02%

## CCCNC(=S)NCCC(O)c1ccccc1N (stereo unspecified)
[1]
  inhibition: 31.1%
[3]
  IC50: > 1000 µM
[2]
  inhibition: 51.7%
[4]
  IC50: 880 µM

## COc1ccc(N)c(C(=O)CCNC(=O)C2CCC2)c1
[1]
  inhibition: 0.01%

## Nc1ccc(Cl)cc1C(=O)CCNC(=O)C1CC1
[1]
  inhibition: 5.37%

## CNC(=S)NCCC(O)c1cc(OC)ccc1N (stereo unspecified)
[1]
  inhibition: 76.5%
HUVEC
  Activity: 20%
[3]
  IC50: 180 µM
[2]
  inhibition: 80.5%
[5]
  inhibition: inactive
[4]
  IC50: 130 µM
[6]
  inhibition: inactive

## CCCNC(=O)NCCC(O)c1ccccc1N (stereo unspecified)
[1]
  inhibition: 19%
[2]
  inhibition: 7%

## COC(=O)[C@@H](N)CCCNC(=N)N[N+](=O)[O-]
[7]
  inhibition: Active

## COc1ccc(N)c(C(=O)CCNC(=O)C2CCCC2)c1
[1]
  inhibition: 0.61%

## CCNC(=O)NCCC(=O)c1cc(Cl)ccc1N
[1]
  inhibition: 78.6%
[2]
  inhibition: 9.86%

## CCNC(=S)NCCC(O)c1ccccc1N (stereo unspecified)
[1]
  inhibition: 19.4%
[2]
  inhibition: 44.8%

## CCCNC(=O)NCCC(O)c1cc(Cl)ccc1N (stereo unspecified)
[1]
  inhibition: 19.6%
[2]
  inhibition: 23.8%

## CCCC(=O)NCCC(=O)c1cc(OC)ccc1N
[1]
  inhibition: 7.35%

## CNC(=S)NCCC(O)c1ccccc1N (stereo unspecified)
[1]
  inhibition: 20.7%
[3]
  IC50: > 1000 µM
[2]
  inhibition: 70.2%
[4]
  IC50: 350 µM

## CC(=O)NCCC(=O)c1cc(Cl)ccc1N
[1]
  inhibition: 19.7%

## COc1ccc(N)c(C(=O)CCNC(=O)C2CCCCC2)c1
[1]
  inhibition: 9.24%

## Nc1ccc(Cl)cc1C(=O)CCNC(=O)c1ccccc1
[1]
  inhibition: 26.6%

## COc1ccc(N)c(C(O)CCNC(=O)Nc2ccccc2)c1 (stereo unspecified)
[1]
  inhibition: 12.3%
[2]
  inhibition: 12.1%

## Nc1ccc(Cl)cc1C(O)CCNC(=O)Nc1ccccc1 (stereo unspecified)
[1]
  inhibition: 3.11%
[2]
  inhibition: 38.6%

## CCNC(=S)NCCC(O)c1cc(Cl)ccc1N (stereo unspecified)
[1]
  inhibition: 60.4%
[3]
  IC50: 800 µM
[2]
  inhibition: 70.6%
[4]
  IC50: 770 µM

## CNC(=S)NCCC(=O)c1cc(OC)ccc1N
[1]
  inhibition: 78.2%
[2]
  inhibition: 46%
